≈ marks a conversion by molar mass, not a printed value.
Experiments:
[1] = tested on: HIV (human immunodeficiency virus); experiment: Anti-HIV activity: development of virus antigen in HIV-infected MT-4 cells (indirect fluorescent antibody method); type: cell-based; settings: 4 days, DMSO only 80 to 90%
Method: Anti-HIV (human immunodeficiency virus) activity
MT-4 cell (about 100,000 cells/ml) was added into a 24 well tray, and then 100 microliters of a solution containing a predetermined quantity of a compound of this invention was added. After culturing it at 37° C. for 5 hours in 5% (v/v) carbon dioxide incubator, 10^3 to 10^4 infection units of HIV was added and cultured for 4 days. Then, a part of the cultured fluid was coated onto a slide glass and immobilized with acetone, after which development of virus antigen was observed by indirect fluorescent antibody method.
As the primary antibody of the fluorescent antibody method, a serum of AIDS patient was used. As its secondary antibody, FITC-labelled […] was used.

[2] = tested on: cytomegalovirus (A0169 strain); experiment: Anti-cytomegalovirus activity: plaque formation in human fetal fibroblasts; type: cell-based; settings: Human betaherpesvirus 5, Fibroblast, 240 h, 100 PFU, 37° C., 10 days
Method: Anti-cytomegalovirus activity was determined in the following manner. Thus, a 35 mm.phi. dish containing a single layer of human fetal fibroblasts was infected with 100 PFU (plaque forming units) of cytomegalovirus (A0169 strain). After adsorption for one hour, a medium (0.5% agarose, 2% fetal calf serum) containing a varied concentration of the compound of this invention was superposed thereon, and the whole was cultured at 37° C. for 10 days in 5% (v/v) carbon dioxide incubator, after which the formation of plaque was measured. The results are shown in Table 3 in terms of 50% inhibitory value (IC50).

Row | Compound | Development of virus antigen (%) ([1]; 3 μg/ml) | Development of virus antigen (%) ([1]; 10 μg/ml) | Development of virus antigen (%) ([1]; 100 μg/ml) | IC50 [2] [µg/mL]
1 | Nc1ncnc2c1ncn2[C@H]1C[C@@H](CO)O1 [Compound No. 1] | 0.1 | < 0.1 | < 0.1 | 
2 | [N-]=[N+]=NC[C@H]1[C@H](n2cnc3c(N)ncnc32)O[C@@H]1CO [Compound No. 2] | 15 | 10 | < 0.1 | 
3 | Nc1ncnc2c1ncn2[C@@H]1O[C@H](CO)[C@@H]1O [Compound No. 3] | 1 | 0.1 | < 0.1 | 
4 | C=C1[C@H](n2cnc3c(N)ncnc32)O[C@@H]1CO [Compound No. 4] | 10 | 3 | < 0.1 | 
5 | CCCCC(=O)OC[C@H]1O[C@@H](n2cnc3c(N)ncnc32)[C@@H]1CO [Compound No. 8] | 5 | 3 | < 0.1 | 
6 | CCCCCCCCCCCCCCCC(=O)OC[C@H]1O[C@@H](n2cnc3c(N)ncnc32)[C@@H]1CO [Compound No. 9] | 7 | 3 | < 0.1 | 1.7 (≈ 3.47 µM)
7 | Nc1ncnc2c1ncn2[C@@H]1O[C@H](CO)[C@H]1F [Compound No. 10] | > 90 | 50 | < 0.1 | 
8 | [N-]=[N+]=N[C@H]1[C@H](n2cnc3c(N)ncnc32)O[C@@H]1CO [Compound No. 11] | > 90 | 75 | < 0.1 | 
9 | O=c1[nH]cnc2c1ncn2[C@H]1C[C@@H](CO)O1 [Compound No. 13] | < 0.1 | < 0.1 | < 0.1 | 
10 | CCCCC(=O)OC[C@H]1O[C@@H](n2cnc3c(=O)[nH]c(N)nc32)[C@@H]1CO [Compound No. 14] |  |  |  | > 5
11 | CCCCC(=O)OC[C@H]1O[C@@H](n2cnc3c(N)nc(N)nc32)[C@@H]1CO [Compound No. 15] |  |  |  | > 5
12 | Nc1ncnc2c1ncn2[C@@H]1O[C@H](CO)[C@H]1N [Compound No. 16] | 17 | 6 | < 0.1 | 
13 | O=c1[nH]cnc2c1ncn2[C@@H]1O[C@H](CO)[C@H]1COS(=O)(=O)O [Compound No. 17] | 60 | 10 | < 0.1 | 

— US5041447A, “Oxetanocin-related compounds and pharmaceutical compositions containing them” (priority 1988, dated 1991)
